The record followed here is publication PMC6934184, “Selective DNA-PKcs inhibition extends the therapeutic index of localized radiotherapy and chemotherapy” (The Journal of Clinical Investigation, 2019).

The assay has as its target T1, MAP3K14 (NIK) (Homo sapiens, UniProt Q99558).
T1 construct: purchased Thermo Fisher Scientific (Life Technologies) SelectScreen
The assay can be described thus: SelectScreen LanthaScreen. It is filed as binding. The conditions noted are these: read-out: % displacement. Summed up: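 Percent values come from Thermo SelectScreen profiling of NU5455, combining activity and binding assays. CSF1R was run in Z'LYTE format at Km app ATP, and CAMK1 in Adapta format with ATP listed at 10.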
On the technique in general: In TR-FRET formats the signal depends on donor and acceptor labels being close together.

T1 sequence (Q99558 whole entry): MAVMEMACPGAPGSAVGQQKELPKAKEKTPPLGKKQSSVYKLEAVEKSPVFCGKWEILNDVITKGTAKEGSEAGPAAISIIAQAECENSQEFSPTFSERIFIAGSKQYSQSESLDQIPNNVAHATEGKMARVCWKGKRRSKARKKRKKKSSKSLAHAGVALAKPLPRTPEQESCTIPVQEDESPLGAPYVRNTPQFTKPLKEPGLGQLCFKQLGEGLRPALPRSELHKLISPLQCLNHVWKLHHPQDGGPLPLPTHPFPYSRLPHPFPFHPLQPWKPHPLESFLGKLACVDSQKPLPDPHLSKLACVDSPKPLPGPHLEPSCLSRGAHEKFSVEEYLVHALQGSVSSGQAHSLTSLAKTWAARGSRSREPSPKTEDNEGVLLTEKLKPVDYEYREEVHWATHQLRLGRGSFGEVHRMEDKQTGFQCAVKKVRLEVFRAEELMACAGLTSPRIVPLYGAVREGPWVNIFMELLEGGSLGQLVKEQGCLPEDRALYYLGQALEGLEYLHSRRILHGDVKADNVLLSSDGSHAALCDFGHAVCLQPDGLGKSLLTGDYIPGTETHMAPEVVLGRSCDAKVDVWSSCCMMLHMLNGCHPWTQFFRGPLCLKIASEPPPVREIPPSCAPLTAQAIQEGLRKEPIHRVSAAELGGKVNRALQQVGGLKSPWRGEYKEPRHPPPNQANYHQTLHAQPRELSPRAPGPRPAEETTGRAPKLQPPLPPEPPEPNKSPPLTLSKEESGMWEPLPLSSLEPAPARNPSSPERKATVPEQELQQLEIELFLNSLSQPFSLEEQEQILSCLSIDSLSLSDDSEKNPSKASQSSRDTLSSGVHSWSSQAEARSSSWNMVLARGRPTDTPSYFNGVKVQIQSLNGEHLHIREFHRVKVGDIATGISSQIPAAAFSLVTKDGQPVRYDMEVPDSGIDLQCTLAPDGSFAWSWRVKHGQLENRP

`CN(C(=O)CN1CCOCC1)c1ccc2sc3c(-c4cccc5c(=O)cc(N6CC7CCC(C6)O7)oc45)cccc3c2c1` [NU5455]: the inhibition at 1 µM is -0.5%.
